Experimental data reported in the supplement of paper PMC10307832.

How the values were obtained:
Experiment in all cases: relative viability (nuclei count vs DMSO), 5 days (fraction); higher = more cells survive
Motesanib + Vorinostat = compound: CC1(C)CNc2cc(NC(=O)c3cccnc3NCc3ccncc3)ccc21 [Motesanib] + O=C(CCCCCCC(=O)Nc1ccccc1)NO [Vorinostat] (partner 1 µM)
Procedure, shortened: (§1)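 The day after seeding in 1536-well plates, lung cancer cell lines were treated by pin tool with a single drug, or with a fixed anchor-drug dose together with five library-drug doses (not always all listed) in √10 steps. After 5 days, a combined fix-and-stain solution (final 0.05% Triton X-100, 1% formaldehyde, 1 ug/ml Hoechst) was added. Nuclei counted on 4× images gave relative viability as treated counts over vehicle counts, reported as the median of duplicate plates.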

[1] = compound: C[C@@]1(C(=O)Nc2ccc(F)nc2)CCCN1c1nc(Nc2cc(C3CC3)n[nH]2)c2cccn2n1 + Cc1nc(Nc2ncc(C(=O)Nc3c(C)cccc3Cl)s2)cc(N2CCN(CCO)CC2)n1 [Dasatinib] (partner 0.075 µM)
Procedure, shortened: as §1

[2] = compound: C[C@@]1(C(=O)Nc2ccc(F)nc2)CCCN1c1nc(Nc2cc(C3CC3)n[nH]2)c2cccn2n1 + Nc1ncn([C@H]2C[C@H](O)[C@@H](CO)O2)c(=O)n1 [Decitabine] (partner 2 µM)
Procedure, shortened: as §1

[3] = compound: C[C@@]1(C(=O)Nc2ccc(F)nc2)CCCN1c1nc(Nc2cc(C3CC3)n[nH]2)c2cccn2n1 + O=C(CCCCCCC(=O)Nc1ccccc1)NO [Vorinostat] (partner 1 µM)
Procedure, shortened: as §1

Row | Cell Line | relative viability (Motesanib + Vorinostat; first compound 0.01 µM) | relative viability (Motesanib + Vorinostat; first compound 0.03162 µM) | relative viability (Motesanib + Vorinostat; first compound 0.1 µM) | relative viability (Motesanib + Vorinostat; first compound 0.3162 µM) | relative viability (Motesanib + Vorinostat; first compound 1 µM) | relative viability ([1]; first compound 0.04 µM) | relative viability ([1]; first compound 0.1265 µM) | relative viability ([1]; first compound 0.4 µM) | relative viability ([1]; first compound 1.265 µM) | relative viability ([2]; first compound 0.04 µM) | relative viability ([2]; first compound 0.1265 µM) | relative viability ([2]; first compound 0.4 µM) | relative viability ([2]; first compound 1.265 µM) | relative viability ([3]; first compound 0.04 µM) | relative viability ([3]; first compound 0.1265 µM) | relative viability ([3]; first compound 0.4 µM) | relative viability ([3]; first compound 1.265 µM)
1 | NCI-H1651 | 0.475 | 0.605 | 0.575 | 0.583 | 0.581 | 0.309 | 0.33 | 0.185 | 0.231 | 0.567 | 0.527 | 0.565 | 0.45 | 0.547 | 0.499 | 0.517 | 0.448
2 | NCI-H1755 | 0.672 | 0.759 | 0.808 | 0.945 | 0.747 | 0.29 | 0.262 | 0.241 | 0.171 | 0.698 | 0.687 | 0.704 | 0.74 | 0.796 | 0.609 | 0.653 | 0.726
3 | NCI-H661 | 0.775 | 0.737 | 0.766 | 0.797 | 0.883 | 0.762 | 0.841 | 0.669 | 0.517 | 0.528 | 0.514 | 0.54 | 0.547 | 0.781 | 0.774 | 0.815 | 0.559
4 | HARA | 0.573 | 0.706 | 0.538 | 0.638 | 0.565 | 0.297 | 0.203 | 0.188 | 0.163 | 0.445 | 0.436 | 0.418 | 0.513 | 0.364 | 0.233 | 0.31 | 0.433
5 | NCI-H596 | 0.586 | 0.546 | 0.56 | 0.511 | 0.711 | 0.552 | 0.439 | 0.415 | 0.372 | 1.08 | 0.977 | 0.96 | 0.912 | 0.571 | 0.449 | 0.528 | 0.466
6 | NCI-H23 | 0.597 | 0.549 | 0.516 | 0.741 | 0.51 | 0.653 | 0.384 | 0.325 | 0.269 | 0.274 | 0.253 | 0.258 | 0.271 | 0.473 | 0.332 | 0.27 | 0.178
7 | LCLC-97TM1 | 0.796 | 0.884 | 0.495 | 0.858 | 0.575 | 0.54 | 0.224 | 0.229 | 0.134 | 0.228 | 0.131 | 0.111 | 0.271 | 0.361 | 0.28 | 0.106 | 0.0755
8 | EPLC-272H | 0.385 | 0.518 | 0.448 | 0.479 | 0.477 | 0.275 | – | 0.157 | 0.084 | 0.348 | 0.306 | 0.279 | 0.336 | 0.578 | 0.234 | 0.336 | 0.406
9 | NCI-H2342 | 0.702 | 0.77 | 0.715 | 0.704 | 0.751 | 0.356 | 0.26 | 0.294 | 0.264 | 0.685 | 0.636 | 0.559 | 0.671 | 0.803 | 0.708 | 0.696 | 0.582
